In patent publication US20210161997A1, “TREATING DISEASES VIA TARGETED MODULATION OF GENE SIGNALING NETWORKS” (Camp4 Therapeutics Corporation, priority 2018, published 2021):

Legend:
Type in all cases: cell-based
[1] = test system: LECT2; test: RNA-seq of LECT2 expression in compound-treated primary human hepatocytes
Method: (§1) Human hepatocytes were obtained from two donors from Massachusetts General Hospital, namely MGH54 and MGH63, and one donor from Lonza, namely HUM4111B. Cryopreserved hepatocytes were cultured in plating media for 16 hours, transferred to maintenance media for 4 hours. Cultured on serum-free media for 2 hours, then a compound was added. The hepatocytes were maintained on the serum-free media for 16 hours prior to gene expression analysis. Primary human hepatocytes were stored in the vapor phase of a liquid nitrogen freezer (about −130° C.).
(§2) Human hepatocytes cultured as described above were plated in 24-well format, adding 375,000 cells per well in a volume of 500 ul plating medium. Four hours before treatment, cells were washed with PBS and the medium was changed to either: fresh maintenance medium (complete) or modified maintenance medium.
(§3) Compound stocks were prepared at 1000× final concentration and added in a 2-step dilution to the medium to reduce risk of a compound precipitating out of solution when added to the cells, and to ensure reasonable pipetting volumes. One at a time, each compound was first diluted 10-fold in warm (about 37° C.) modified maintenance medium (initial dilution=ID), mixed by vortexing, and the ID was diluted 100-fold into the cell culture (e.g. 5.1 ul into 1 well of a 24-well plate containing 0.5 mL medium). The plate was mixed by carefully swirling and after all wells were treated and returned to the incubator overnight. If desired, separate plates/wells were treated with vehicle-only controls and/or positive controls. If using multi-well plates, controls were included on each plate. After about 18 hours, cells were harvested for further analysis, e.g., ChIP-seq, RNA-seq, ATAC-seq, etc.
(§4) This protocol is a modified version of the following protocols: MagMAX mirVana Total RNA Isolation Kit User Guide (Applied Biosystems #MAN0011131 Rev B.0), NEBNext Poly(A) mRNA Magnetic Isolation Module (E7490), and NEBNext Ultra Directional RNA Library Prep Kit for Illumina (E7420) (New England Biosystems #E74901).
(§5) The MagMAX mirVana kit instructions (the section titled “Isolate RNA from cells” on pages 14-17) were used for isolation of total RNA from cells in culture. Two hundred μl of Lysis Binding Mix was used per well of the multiwell plate containing adherent cells (usually a 24-well plate).
(§6) For mRNA isolation and library prep, the NEBNext Poly(A) mRNA Magnetic Isolation Module and Directional Prep kit was used. RNA isolated from cells above was quantified, and prepared in […] of each sample in 50 μl of nuclease-free water. This protocol may be run in microfuge tubes or in a 96-well plate.
(§7) Standard QC were applied (read integrity, mapping statistics, library complexity, fragment bias) to remove unsatisfactory samples. […] Log 2 fold change and significance values were computed using PME count data (with replicates explicitly modeled versus pan-experiment controls), median ratio normalized, using maximum likelihood estimation rather than maximum a posteriori, and disabling the use of Cook's distance cutoff when determining acceptable adjusted p-values. […] RNA-seq signals were also normalized by read depth and visualized using the UCSC browser.
(§8) To identify small molecules that modulate target gene expression, primary human hepatocytes were prepared as a monoculture, and at least one small molecule compound was applied to the cells.
(§9) RNA-seq was performed to determine the effects of the compounds on the expression of the target genes in hepatocytes. Fold change was calculated by dividing the level of expression in the cell system that had been perturbed by the level of expression in an unperturbed system. Changes in expression having a p-value ≤0.05 were considered significant.
(§10) Significance was defined as an FPKM ≥1, a log 2(fold change) ≥0.5, and a q-value of ≤0.05 for all targets except for CPOX.

[2] = test system: UGT1A1; test: RNA-seq of UGT1A1 expression in compound-treated primary human hepatocytes
Method: as §1, §2, §3, §4, §5, §6, §7, §8, §9, §10

[3] = test system: SERPINC1 mRNA; test: Quantitative PCR of SERPINC1 mRNA in primary human hepatocytes (Lonza Hu4282) treated with compounds; conditions: quantitative PCR
[4] = test system: SERPINC1 mRNA; test: Quantitative PCR of SERPINC1 mRNA in mouse hepatocytes treated with compounds; conditions: for SERPINC1 mRNA, Mouse Heps, 1 uM: compound 1 uM; for SERPINC1 mRNA, Mouse Heps, 10 uM: compound 10 uM
Method: Samples were amplified using Taqman probes from ThermoFisher.
In some examples, RQ Min and RQ Max values are also reported. RQ Min and RQ Max are the minimum and maximum relative levels of gene expression in the test samples, respectively. They were calculated using the confidence level set in the analysis settings and the confidence level was set to one standard deviation (SD). These values were calculated using standard deviation as follows: […].
Compounds were tested in hepatocytes for upregulation of SERPINC1 mRNA for identification of potential treatments of SERPINC1/AT III deficiency.

[5] = test system: ANGPTL3; test: RNA-seq of ANGPTL3 expression in compound-treated primary human hepatocytes; conditions: additional compounds (Table 13), linear fold change
Method: as §1, §2, §3, §4, §5, §6
All pass filter reads from each sample were mapped against the human genome (assembly GRCh38/GCA_000001405.15 “no alt” analysis set merged with hs38d1/GCA_000786075.2) using two pass mapping via STAR version 2.5.3a (alignment parameters alignIntronMin=20; alignIntronMax=1000000; outFilterMismatchNmax=999; outFilterMismatchNoverLmax=0.05; outFilterType=BySJout; outFilterMultimapNmax=20; alignSJoverhangMin=8; alignSJDBoverhangMin=1; alignMatesGapMax=1000000) (Dobin et al., Bioinformatics (2012) 29(1):15-21). Genomic alignments were converted to transcriptome alignments based on reference transcript annotations from the Human GENCODE Gene Set release 24 (Harrow et al., Genome Res. (2012) 22(9): 1760-1774). Using unique and multimapped transcriptomic alignments, gene-level abundance estimates were computed using RSEM version 1.3.0 (Li and Dewey, BMC Bioinformatics (2011) 12:323) in a strand-aware manner, and including confidence interval sampling calculations, to arrive at posterior mean estimates (PME) of abundances (counts and normalized FPKM—fragments per kilobase of exon per million mapped fragments) from the underlying Bayesian model. Standard QC were applied (read integrity, mapping statistics, library complexity, fragment bias) to remove unsatisfactory samples.

[6] = test system: JAG1; test: RNA-seq of JAG1 expression in compound-treated primary human hepatocytes; conditions: for JAG1 Fold Change (Log2): primary human hepatocytes
Method: (§11) Human hepatocytes were obtained from two donors from Massachusetts General Hospital, namely MGH54 and MGH63, and one donor from Lonza, namely HUM4111B. Cryopreserved hepatocytes were cultured in plating media for 16 hours, transferred to maintenance media for 4 hours. Cultured on serum-free media for 2 hours, then a compound was added. The hepatocytes were maintained on the serum-free media for 16 hours prior to gene expression analysis. Primary human hepatocytes were stored in the vapor phase of a liquid nitrogen freezer (about -130° C.). Human hepatocytes cultured as described above were plated in 24-well format, adding 375,000 cells per well in a volume of 500 ul plating medium. Four hours before treatment, cells were washed with PBS and the medium was changed to either: fresh maintenance medium (complete) or modified maintenance medium. Compound stocks were prepared at 1000× final concentration and added in a 2-step dilution to the medium to reduce risk of a compound precipitating out of solution when added to the cells, and to ensure reasonable pipetting volumes. […] The plate was mixed by carefully swirling and after all wells were treated and returned to the incubator overnight. If desired, separate plates/wells were treated with vehicle-only controls and/or positive controls. If using multi-well plates, controls were included on each plate. After about 18 hours, cells were harvested for further analysis, e.g., ChIP-seq, RNA-seq, ATAC-seq, etc. This protocol is a modified version of the following protocols: MagMAX mirVana Total RNA Isolation Kit User Guide (Applied Biosystems #MAN0011131 Rev B.0), NEBNext Poly(A) mRNA Magnetic Isolation Module ([…]), and NEBNext Ultra Directional RNA Library Prep Kit for Illumina ([…]) (New England Biosystems #E74901). […] Two hundred μl of Lysis Binding Mix was used per well of the multiwell plate containing adherent cells (usually a 24-well plate). For mRNA isolation and library prep, the NEBNext Poly(A) mRNA Magnetic Isolation Module and Directional Prep kit was used. RNA isolated from cells above was quantified, and prepared in […] of each sample in 50 μl of nuclease-free water. This protocol may be run in microfuge tubes or in a 96-well plate. […] Genomic alignments were converted to transcriptome alignments based on reference transcript annotations from the Human GENCODE Gene Set release 24 (Harrow et al., Genome Res. […] Standard QC were applied (read integrity, mapping statistics, library complexity, fragment bias) to remove unsatisfactory samples. Differential gene expression was computed using the negative binomial model implemented by DESeq2 version 1.16.1 (Love et al., Genome Biol. (2014) 15(12):550). […] RNA-seq signals were also normalized by read depth and visualized using the UCSC browser. To identify small molecules that modulate target gene expression, primary human hepatocytes were prepared as a monoculture, and at least one small molecule compound was applied to the cells. RNA-seq was performed to determine the effects of the compounds on the expression of the target genes in hepatocytes. Fold change was calculated by dividing the level of expression in the cell system that had been perturbed by the level of expression in an unperturbed system.

[7] = test system: NOTCH2; test: RNA-seq of NOTCH2 expression in compound-treated primary human hepatocytes; conditions: for NOTCH2 Fold Change (Log2): primary human hepatocytes; for Significant modulation of NOTCH2 (in words): summary of Table 6
Method: as §11

CO[C@H]1/C=C/O[C@@]2(C)Oc3c(C)c(O)c4c(O)c(c(/C=N/N5CCN(C)CC5)c(O)c4c3C2=O)NC(=O)/C(C)=C\C=C\[C@H](C)[C@H](O)[C@@H](C)[C@@H](O)[C@@H](C)[C@H](OC(C)=O)[C@@H]1C [Rifampicin]
LECT2 Fold Change (Log2) [1]: −0.88 Log2

CC(C)c1nc(CN(C)C(=O)N[C@H](C(=O)N[C@@H](Cc2ccccc2)C[C@H](O)[C@H](Cc2ccccc2)NC(=O)OCc2cncs2)C(C)C)cs1 [Ritonavir]
LECT2 Fold Change (Log2) [1]: −1.00 Log2
UGT1A1 Fold Change (Log2) [2]: 0.63 Log2

CN1C/C=C/CCOc2cccc(c2)-c2ccnc(n2)Nc2cccc(c2)C1 [SB1317/TG02]
SERPINC1 mRNA, Lonza Hu4282, 1 uM ([3]; primary human hepatocytes Lonza Hu4282, compound 1 uM): 1.9
SERPINC1 mRNA, Lonza Hu4282, 10 uM ([3]; primary human hepatocytes Lonza Hu4282, compound 10 uM): 2.28
SERPINC1 mRNA, Mouse Heps, 1 uM [4]: 1.13
SERPINC1 mRNA, Mouse Heps, 10 uM [4]: 1.85

CN1CCN(CCCN2c3ccccc3Sc3ccc(C(F)(F)F)cc32)CC1 [TFP]
LECT2 Fold Change (Log2) [1]: −0.91 Log2
ANGPTL3-LINEAR FOLD CHANGE [5]: 0.2832

CCOC(=O)N1c2ccc(C(F)(F)F)cc2[C@@H](N(Cc2cc(C(F)(F)F)cc(C(F)(F)F)c2)C(=O)OC)C[C@H]1CC [Torcetrapib]
JAG1 Fold Change (Log2) [6]: 0.68 Log2
Significant modulation of JAG1 (in words) ([6]; summary of Table 6): significantly modulate both JAG1 and NOTCH2
NOTCH2 Fold Change (Log2) [7]: 0.76 Log2
Significant modulation of NOTCH2 (in words) [7]: significantly modulate both JAG1 and NOTCH2
LECT2 Fold Change (Log2) [1]: −0.86 Log2

COc1nc(C)cnc1NS(=O)(=O)c1cccnc1-c1ccc(-c2nnco2)cc1 [Zibotentan]
JAG1 Fold Change (Log2) [6]: 0 Log2
NOTCH2 Fold Change (Log2) [7]: 0.94 Log2
Significant modulation of NOTCH2 (in words) [7]: significantly modulate only NOTCH2
LECT2 Fold Change (Log2) [1]: −0.83 Log2

C[C@]12CC[C@@H]3c4ccc(O)cc4CC[C@H]3[C@@H]1CC[C@@H]2O [b-Estradiol]
LECT2 Fold Change (Log2) [1]: −0.90 Log2

COc1cccc2cc(-c3nc([C@H]4CC[C@H](C(=O)O)CC4)n4ncnc(N)c34)[nH]c12 [compound 308 (OSI-027)]
SERPINC1 mRNA, H8290, 1 uM ([3]; hepatocytes H8290, compound 1 uM): 1.7
SERPINC1 mRNA, H8290, 10 uM ([3]; hepatocytes H8290, compound 10 uM): 1.9
SERPINC1 mRNA, Mouse Heps, 1 uM [4]: 1.53
SERPINC1 mRNA, Mouse Heps, 10 uM [4]: 2.36
